{"source": "PubChem BioAssay AID743076", "tested_on": "P. falciparum blood stage, IPP rescue, flow cytometry 72 h", "test": "IPP rescue of P. falciparum growth inhibition, mechanism study for antimalarial apicoplast targeting, P. falciparum blood stage (AID 743076)", "conditions": "at 5 µM; hits give high values", "data": [{"smiles": "O=C(O)C1Cc2c([nH]c3ccccc23)C(c2ccc(Cl)cc2Cl)N1", "note": "(stereo unspecified)", "values": [{"measurement": "parasitemia ratio IPP rescue/non-rescue", "value": 6.32}]}]}
